One experiment has as its system Pseudomonas aeruginosa. Put plainly: minimum inhibitory concentration, broth two-fold serial dilution test, Pseudomonas aeruginosa. Format: cell-based, Pseudomonas aeruginosa ATCC 15442. The settings on record: for MIC: Pseudomonas aeruginosa, ATCC15442, Pseudomonas aeruginosa ATCC 15442, TSB media, lowest concentration with complete inhibition of growth, read-out: MIC (TSB media) Psae. On the procedure:
(§1) Bactericidal and fungicidal evaluations of the compounds of Example 5 were carried out.
(§2) A minimum inhibitory concentration (MIC) value is obtained using a broth, two-fold serial dilution test performed as follows: A stock solution or dispersion of the test compound, typically at a concentration of 1%, is made in a 5:3:2 solvent solution of acetone, methanol, and water. A volume of the stock solution is dispensed into culture media to give an initial starting test concentration of 500 ppm compound.
(§3) When the test is ready to be done, each vessel in the dilution series, except the first vessel, contains an equal volume of compound free broth. The first vessel contains twice the volume of broth with the starting concentration of test compound. One half of the broth from the first vessel is transferred to the second vessel. After being mixed, one half the resulting volume is removed from the second vessel and transferred to the third vessel. The entire cycle is repeated sufficiently to give a series of concentrations amounting to 500, 250, 125, 63, 31, 16, 8 and 4, 2, 1, 0.5, 0.25 ppm respectively.
(§4) Each vessel is then inoculated with a cell suspension of the appropriate test organism. Bacteria are grown in broth, fungi or agar slants for a time and at a temperature appropriate to the species being tested, and algae are a mixture of green algae and blue-green bacteria grown in a nutrient media. At the end of the growth period, in the case of bacteria, the broth is vortexed to disperse the cells.
(§5) The vessels are then incubated at the appropriate temperature. After the incubation, the vessels are examined for growth/no growth. The minimum inhibitory concentration (MIC) is defined as the lowest concentration of compounds that results in complete inhibition of growth of the test organism.
1. Pseudomonas aeruginosa

The test system of a further experiment is Rhodotorula rubra. Put plainly: minimum inhibitory concentration, broth two-fold serial dilution test, Rhodotorula rubra. Format: cell-based. The settings on record: lowest concentration with complete inhibition of growth; for MIC: Rhodotorula, TSB media, read-out: MIC (TSB media) Rrub. As for the experimental part: as §1, §2, §3, §4
(§6) In the case of fungi, the spores are harvested by pipetting water onto the slant and dislodging the spores with a sterile loop. The cell/spore suspension is standardized by controlling incubation time, temperature, and the volume of the diluent. The suspension is then used to inoculate the vessels containing the broth compound.
as §5
4. Rhodotorula rubra Rrub

In the next experiment the test system is Aspergillus niger. Put plainly: minimum inhibitory concentration, broth two-fold serial dilution test, Aspergillus niger. Format: cell-based, Aspergillus niger ATCC 6275. The settings on record: for MIC: Aspergillus niger, ATCC6275, Aspergillus niger ATCC 6275, TSB media, lowest concentration with complete inhibition of growth, read-out: MIC (TSB media) Anig. As for the experimental part: as §1, §2, §3, §4, §6, §5
3. Aspergillus niger 6275 Anig

The test system of a further experiment is Escherichia coli. Put plainly: minimum inhibitory concentration, broth two-fold serial dilution test, Escherichia coli. Format: cell-based, Escherichia coli ATCC 11229. The settings on record: for MIC: Escherichia coli, ATCC11229, Escherichia coli ATCC 11229, TSB media, lowest concentration with complete inhibition of growth, read-out: MIC (TSB media) Ecol. As for the experimental part:
as §1, §2, §3, §4, §5

The term MIC denotes the smallest concentration in the dilution series that meets the test's criterion for growth inhibition. With `CCCCCCCC[N+](C)(CC#CBr)CCCCCCCC` [Compound 25, methyldioctyl(3-bromopropargyl) ammonium 4-methylbenzenesulfonate], the MIC amounted to 500 µg/mL in the experiment with Pseudomonas aeruginosa, 6.3 µg/mL in the experiment with Rhodotorula rubra, 12.5 µg/mL in the experiment on Aspergillus niger and 32 µg/mL with Escherichia coli.
For `CCCCCC[N+](CC#CI)(CCCCCC)CCCCCC` [Compound 31, reference compound], in that order: greater than 500 µg/mL, 6.3 µg/mL, 12.5 µg/mL and 63 µg/mL.
For the compound `CCCCCCCCCCCCCC[N+]1(CC#CI)CCOCC1` [Compound 32, reference compound], the minimum inhibitory concentration (MIC) in the experiment with Pseudomonas aeruginosa came to 125 µg/mL; in the experiment on Rhodotorula rubra, 4 µg/mL; in the experiment with Aspergillus niger it was 4 µg/mL; in the experiment on Escherichia coli, 8 µg/mL.
With `CCCCCCCCCCCCCC[N+]1(CC#CI)CCCCC1` [Compound 33, reference compound], the minimal inhibitory concentration (MIC) worked out at 125 µg/mL in the experiment with Pseudomonas aeruginosa, 2 µg/mL in the experiment with Rhodotorula rubra, 4 µg/mL in the experiment on Aspergillus niger and 4 µg/mL in the experiment with Escherichia coli.
Take `CCCCCCCC[N+](CC#CI)(CCCCCCCC)CCCCCCCC` [Compound 34, reference compound]: the MIC with Pseudomonas aeruginosa is 1.6 µg/mL; with Rhodotorula rubra it was 1.6 µg/mL; in the experiment on Aspergillus niger, 1.6 µg/mL; in the experiment with Escherichia coli, greater than 500 µg/mL.
For “dimethyldodecyl ammonium 4-methylbenzenesulfonate [Compound 21]”, the “MIC (TSB media) Psae” value against Pseudomonas aeruginosa (Pseudomonas aeruginosa ATCC 15442, lowest concentration with complete inhibition of growth) was determined as 250 ppm. In addition, in the experiment on Rhodotorula rubra, the “MIC (TSB media) Rrub” value is given as 3.2 ppm. For the same compound, the “MIC (TSB media) Anig” value against Aspergillus niger (Aspergillus niger ATCC 6275, lowest concentration with complete inhibition of growth) is 6.3 ppm. Further, the “MIC (TSB media) Ecol” value against Escherichia coli (Escherichia coli ATCC 11229, lowest concentration with complete inhibition of growth) is listed as 32 ppm.

Values taken from US5411933A, “Bromopropargyl quarternary ammonium compounds having antimicrobial activity” (Rohm & Haas Company, priority 1994, dated 1995).
